Laboratory results published in patent publication US20130243720A1, “Iron(II)-Containing A Treatments for Hyperphosphatemia” (priority 2006, published 2013).

Test system: Sprague Dawley (SD) rats
Assay: Effects of compounds for reducing urinary phosphate levels in rats fed treatment diet
Type: in vivo, rat
Details: male SD rats; for Urinary Phosphate: urine collected on days 5 and 6
Description: House male Sprague Dawley (SD) rats were used for the experiments. The rats were placed singly in wire-bottom cages, fed with Purina 5002 diet, and allowed to acclimate for at least 5 days prior to experimental use.
To establish baseline phosphorus excretion, the rats were placed in metabolic cages for 48 hours. Their urine was collected and its phosphorus content analyzed with a Hitachi analyzer to determine phosphorus excretion in mg/day. Any rats with outlying values were excluded; and the remainder of the rats was distributed into groups.
Purina 5002 was used as the standard diet. The compound or compound mixture being tested was mixed with Purina 5002 to result in a final concentration 0.5% (or as indicated in the table) by weight. Cellulose at 0.5% by weight was used as a negative control. For each rat, 200 g of diet was prepared.
Each rat was weighed and placed on the standard diet. After 4 days the standard diet was replaced with the treatment diet (or control diet for the control group). On days 5 and 6, urine samples from the rats at 24 hours (+/−30 minutes) were collected and analyzed. The test rats were again weighed, and any weight loss or gain was calculated. Any remaining food was also weighed to calculate the amount of food consumed per day. A change in phosphorus excretion relative to baseline and cellulose negative control was calculated using Excel program.

[1] = 0.5% of diet, urinary phosphorus excretion relative to baseline and cellulose negative control
[2] = compound mixed with Purina 5002 diet at 0.5% by weight

Molecule | % Control [1] [%] | Urinary Phosphate [2] [mg/day] | % Control (0.30% of diet, relative to baseline and cellulose negative control) [%] | Urinary Phosphate (0.30% of diet) [mg/day] | % Control (0.5% of diet, urinary phosphorus excretion relative to baseline and cellulose negative control, listed as Iron(II) Acetate) [%] | % Control (0.7% of diet, relative to baseline and cellulose negative control) [%] | Urinary Phosphate (0.7% of diet) [mg/day] | Urinary Phosphate (compound mixed with Purina 5002 diet at 0.5% by weight, listed as Iron(II) Acetate) [mg/day]
[Fe+2].[O-2] [Iron(II)oxide, iron(II) oxide] | 104.3 | 20.2 | – | – | – | – | – | –
CC(=O)/C=C(/C)O.CC(=O)/C=C(/C)O.[Fe] [Fe(II) acetylacetonato] | 55.6 | 10.4 | – | – | – | – | – | –
CC(=O)[O-].CC(=O)[O-].[Fe+2] [Iron(II) acetate, iron(II) acetate] | 65.9 | 12.8 | 67.4 | 12.1 | 69.1 | 44.4 | 8.0 | 12.4
(+)-iron(II) L-ascorbate | 78.6 | 13.4 | – | – | – | – | – | –
O=C([O-])C(=O)[O-].[Fe+2] [Iron(II) oxalate, iron(II) oxalate] | 89.0 | 14.8 | – | – | – | – | – | –
